Measurements taken from publication PMC2854128, “A Target-Based High Throughput Screen Yields Trypanosoma brucei Hexokinase Small Molecule Inhibitors with Antiparasitic Activity” (PLoS Neglected Tropical Diseases, 2010).
“And” between values parts separate entries of the source, which are not always exact repeats. Identical values can stand only once. Like-named read-outs stand apart in the source and are kept apart here.

Legend:
[1] = system: BSF T. brucei parasites (cell line 90-13, a 427 strain); test: T. brucei BSF viability assay (CellTiter Blue); type: cell-based, Trypanosoma brucei; details: for EC50: Trypanosoma brucei; for Toxicity to BSF at 10 µM: cell density after 72 hr
Procedure: CellTiter Blue (Promega, Madison WI) was added (20 µl) and the plates incubated an additional 3 hr under standard culture conditions.

[2] = target: T1, human HK 4 (human glucokinase, hGlk) (Homo sapiens, UniProt P35557); test: Specificity assay against human HK 4 (human glucokinase, hGlk); type: biochemical; details: for inhibition at 10 µM: read-out: % Inhibition of hGlck (10 µM)
T1 construct: His tag (from pQE30); made in house; host or cells: E. coli M15 (pREP)
T1 sequence (P35557 1-465): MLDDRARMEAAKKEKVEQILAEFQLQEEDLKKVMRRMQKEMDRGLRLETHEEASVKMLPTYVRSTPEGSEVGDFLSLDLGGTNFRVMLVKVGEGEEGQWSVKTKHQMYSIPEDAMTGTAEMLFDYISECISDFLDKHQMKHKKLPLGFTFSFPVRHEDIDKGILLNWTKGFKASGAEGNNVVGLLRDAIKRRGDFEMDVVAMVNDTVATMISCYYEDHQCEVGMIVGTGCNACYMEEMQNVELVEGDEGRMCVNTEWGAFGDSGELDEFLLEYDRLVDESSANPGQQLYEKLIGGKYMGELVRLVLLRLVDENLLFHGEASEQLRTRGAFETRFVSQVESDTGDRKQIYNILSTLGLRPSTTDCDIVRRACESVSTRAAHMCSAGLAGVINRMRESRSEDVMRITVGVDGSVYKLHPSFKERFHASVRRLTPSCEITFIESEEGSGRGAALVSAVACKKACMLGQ
Procedure: Additional specificity assays were performed using human HK 4 (human glucokinase, hGlk, GenBank accession no. BC001890) that was expressed from a cloned cDNA (OPEN Biosystems, Huntsville, AL) in pQE30.

[3] = target: T2, TbHK1 (Trypanosoma brucei brucei, UniProt Q38C42); test: TbHK1 coupled enzyme HTS assay (G6PDH coupled, bacterially expressed rTbHK1); type: biochemical; details: for Fold less potent upon resupply (TbHK1 IC50 versus cherry-picked compound): resupplied versus cherry-picked compound
T2 sequence (Q38C42 entry or part of it): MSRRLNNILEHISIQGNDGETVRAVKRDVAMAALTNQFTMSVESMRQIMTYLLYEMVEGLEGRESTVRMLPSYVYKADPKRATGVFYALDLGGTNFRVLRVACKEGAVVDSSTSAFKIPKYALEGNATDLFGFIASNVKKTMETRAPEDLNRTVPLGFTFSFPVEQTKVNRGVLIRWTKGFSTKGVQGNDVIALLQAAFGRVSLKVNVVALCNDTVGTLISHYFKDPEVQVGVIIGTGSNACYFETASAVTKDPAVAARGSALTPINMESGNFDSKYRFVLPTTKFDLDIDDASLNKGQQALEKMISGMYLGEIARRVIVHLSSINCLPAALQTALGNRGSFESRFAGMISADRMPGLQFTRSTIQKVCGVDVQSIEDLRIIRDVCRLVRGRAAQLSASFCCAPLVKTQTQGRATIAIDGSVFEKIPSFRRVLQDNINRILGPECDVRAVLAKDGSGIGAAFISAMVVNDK
Procedure: For purification of bacterially expressed TbHK1 (rTbHK1), a previously described protocol was modified to increase yield. Briefly, a starter culture of E. coli M15(pREP) harboring pQE30 (Qiagen, Valencia, CA) with the TbHK1 gene cloned in frame of a 6-His tagging sequence was grown in ECPM1 [9] and then inoculated into a 5 L bioreactor (Biostat B, B. Braun Biotech International, Allentown, PA) and grown at 37°C. At OD600 between 3–5, the culture was induced with IPTG (0.8 mM), grown without supplement O2 (37°C, 16 hr), and cells collected by centrifugation (5000×g, 20 min, 4°C). The pellet was resuspended in lysis buffer (50 mM NaPO4, pH 8.1, 5 mM glucose, 150 mM NaCl, and 0.1% Tween) and lysed by using a cell disruptor (Constant Cell Disruption Systems, Sanford, NC). The resulting supernatant was applied (5 ml/min) to a 50 ml ProBind column (Invitrogen, Eugene, OR) on a FPLC (GE Lifesciences, Piscataway, NJ) and protein eluted by gradient (5 to 250 mM imidazole) in lysis buffer. Fractions were screened using HK activity assays and Western blotting and those containing rTbHK1 were pooled, concentrated, and applied to a HiTrap SP HP column (GE Lifesciences, Piscataway, NJ).
TbHK1 assays were an adaptation of a coupled enzyme HK assay to a 384-well format, [10]. Briefly, test and control compounds (30 µM in 15 µL volume) were added to a 384 well black, opaque microtiter plate using a Velocity 11 V-prep (Santa Clara, CA) for a final test compound concentration of 10 µM. […] The 45 µL reaction mixture was incubated at RT for 2 hr and then quenched with 5 µL EDTA (500 mM). The resulting signal, which remained stable for up to 5 hr after addition of stop reagent, was collected on a Molecular Devices SpectraMax M5 (absorbance at OD340)(Sunnyvale, CA).

[4] = system: Leishmania promastigotes; test: Leishmania promastigote specificity assay; type: cell-based, L. major; details: 44 h
Procedure: Cell-based specificity assays were performed as previously described. Briefly, mammalian cell line and Leishmania promastigote assays were performed in final volumes of 25 µL using our previously described 384-well microtiter format. All mammalian cell lines were cultured and maintained in complete growth medium preparations according to ATCC specifications (ATCC, Manassas, VA). Leishmania promastigotes were cultured as previously described. […] Vehicle and positive controls were 1% and 10% DMSO, respectively. For mammalian cells, assay plates were incubated for 44–46 h at 37°C in the presence of 5% CO2 and for the Leishmania promastigotes, assay plates were incubated for 44 h at 28°C with 5% CO2. Five µL of CellTiter Blue reagent was added to each assay plate well and incubated for 2–4 h at 37°C with 5% CO2. Data were captured on a Molecular Devices SpectraMax M5 (excitation A560; emission A590).

[5] = system: PF T. brucei parasites (29-13, a 427 strain); test: Procyclic form (PF) parasite growth assay; type: cell-based; details: Trypanosoma brucei, A-427, 48 h, read-out: % PF Growth Inhibition (10 µM)
Procedure: Plates were then incubated for 1 hr under standard culture conditions. Fluorescence of samples was then characterized as above.

[6] = target: T. brucei lysate-derived TbHK1 (Trypanosoma brucei brucei, UniProt Q38C42); test: Inhibition assay of lysate-derived TbHK; type: biochemical; details: read-out: IC50 against T. brucei lysate-derived TbHK1 enzymatic activity; 2×10^5 BSF cell equivalents, 15 min preincubation at RT
Chain of T. brucei lysate-derived TbHK1 (Q38C42 entry or part of it): as above
Procedure: (§1) Parasite lysates from BSF parasites were prepared by incubation (5 min on ice) of 1.5×10^7 cells in lysis buffer (0.1 M TEA, pH 7.4, and 0.1% Triton X-100) supplemented with 1 mM PMSF, 5 µg/ml leupeptin, and 100 µg/ml TLCK. In triplicate, cell equivalents (2×10^5) were incubated with increasing concentrations of inhibitor for 15 minutes at RT prior to initiation of the coupled reaction. In short, the 200 µl reactions included 50 mM TEA, pH 7.4, 33 mM MgCl2, 20 mM glucose, 5.25 mM ATP, 0.75 mM NADP, and 0.1 units of G6PDH, with kinetic analyses performed using KaleidaGraph 4.1 (Synergy Software, Reading, PA).

[7] = cited from earlier work
[8] = target: T2, TbHK1; test: Kinetic analysis of TbHK1 inhibition with respect to ATP (Lineweaver-Burk); type: biochemical
Procedure: as §1
Assays were performed as described for cell lystates (see Materials and Methods) with ATP concentrations varied.

[9] = system: cellular G6P levels in BSF parasites; test: Cellular G6P levels in BSF parasites grown with compound; type: cell-based, Trypanosoma brucei
[10] = target: T2, TbHK1; parameters: method as in Lyda and Morris, unpublished; details: previously identified inhibitor; ref Lyda and Morris, unpublished; cited from earlier work
[11] = A-427, bloodstream form parasites, 3 days (72 hr), read-out: BSF EC50
[12] = resupplied compound, bacterially expressed TbHK1, read-out: IC50 (µM) Resupply
[13] = promastigotes, read-out: L. major EC50
[14] = procyclic form parasites, 10 µM, 2 days
[15] = A-427, 72 h, read-out: BSF EC50 (µM)

Compound	EC50 [1, 11] [µM]	inhibition at 10 µM ([2]; 10 µM compound) [%]	IC50 [3, 12] [µM]	EC50 [4, 13] [µM]	inhibition at 10 µM [5, 14] [%]	Toxicity to BSF at 10 µM [1]	further results
O=C(Cn1sc2ccccc2c1=O)NC12CC3CC(CC(C3)C1)C2 [SID 16952891]	0.3 ± 0.079	44.9 ± 9.9	2.6 ± 0.2	> 12.5	47 ± 0.15	–	–
O=c1c2ccccc2[se]n1-c1ccccc1 [Ebselen, 2-phenyl-1,2-benzisoselenazol-3(2H)-one, reference compound]	2.9 ± 0.28	97.8 ± 0.1	0.05 ± 0.03	4.1 ± 0.4	51 ± 0.16	–	IC50 [6]: 0.43 ± 0.02 µM; Brain levels as percent of plasma levels [7]: 21%; Serum values ([7]; single oral dose (100 mg/kg)): 4 to 5 µM; Ki [8]: 6.13 µM; Nature of TbHK1 inhibition ([8]; with respect to ATP): mixed inhibitors; Reduction in cellular G6P ([9]; 1 hour, 10 times the EC50 (30 µM ebselen, 1 µM SID 17387000), versus untreated parasites): 56%; Reduction in cellular G6P ([9]; 4 hours, 10 times the EC50 (30 µM ebselen, 1 µM SID 17387000), versus untreated parasites): 70%
O=c1c(O)c(-c2ccc(O)c(O)c2)oc2cc(O)cc(O)c12 [quercetin]	–	–	–	–	–	–	IC50 [10]: ~85 µM
COC1=C/C(=C/C(C#N)=C2/NC3=C(CCCC3)S2)C=CC1=O [SID 17386310]	0.038 ± 0.0038	70.3 ± 3.6	33.6 ± 10.2	2.6 ± 0.1	50 ± 0.15	–	% Inhibition of hGlck (10 µM) ([2]; 10 µM compound): more potent inhibitor; Fold less potent upon resupply (TbHK1 IC50 versus cherry-picked compound) [3]: 7.5 fold
O=c1c2ccccc2sn1-c1ccccc1 [SID 17387000, 2-phenyl-1,2-benzisothiazol-3(2H)-one]	–	–	–	–	–	–	EC50 [1, 15]: 0.03 ± 0.067 µM; inhibition at 10 µM [2]: 6.7 ± 9.4%; EC50 ([4]; read-out: L. major EC50 (µM)): 1.9 ± 0.2 µM; inhibition at 10 µM [5]: 48 ± 0.15%; Reduction in cellular G6P [9]: 29% and 18%
O=c1c(O)c(-c2cc(O)c(O)c(O)c2)oc2cc(O)cc(O)c12 [myricetin, reference compound]	–	–	–	–	–	–	inhibition at 10 µM ([3]; 10 µM, LOPAC validation screen, duplicate, read-out: Inhibition of TbHK1 enzymatic activity at 10 µM (LOPAC screen)): ≥ 40%
COc1ccc(C(=O)Nc2cc(Cl)ccc2C(=O)O)cc1 [SID 24797131]	> 10	6.3 ± 8.8	11.4 ± 3.2	> 12.5	0	not toxic	–
O=c1c2ccccc2sn1-c1nccs1 [SID 24830882]	–	88.8 ± 4.9	–	–	–	–	EC50 [1, 15]: 0.83 ± 0.2 µM; IC50 [3]: 16.9 ± 0.1 µM; EC50 ([4]; read-out: L. major EC50 (µM)): > 12.5 µM; inhibition at 10 µM [5]: 8.6 ± 0.03%
C/C(=C/CCC(C)[C@H]1CC[C@@]2(C)C3=C(CC[C@]12C)[C@@]1(C)CCC(=O)C(C)(C)[C@@H]1CC3)C(=O)O (some centres unmarked) [SID 22401406]	> 10	0	–	> 12.5	0	not toxic	% Inhibition of hGlck (10 µM) ([2]; 10 µM compound): minimal impact on the enzyme; IC50 [3]: 2.3 ± 0.3 µM
CCOC(=O)Cc1csc(-n2sc3ccccc3c2=O)n1 [SID 3716597]	> 10	7.8 ± 7.1	9.3 ± 0.3	> 12.5	27 ± 0.08	not toxic	–
CCCCCCCCCCCNC(=O)c1ccoc1C [SID 14728414]	> 10	1.9 ± 7	41.7 ± 3	> 12.5	0	not toxic	% Inhibition of hGlck (10 µM) ([2]; 10 µM compound): minimal impact on the enzyme; Fold less potent upon resupply (TbHK1 IC50 versus cherry-picked compound) [3]: 6.6 fold
Cc1ccccc1-n1sc2cc(F)ccc2c1=O [SID 24785302]	0.042 ± 0.0028	6.9 ± 4.2	4.2 ± 1	1.9 ± 0.2	47 ± 0.15	–	–
